We go through one compound from US10100077B2, “6-aryl-9-glycosylpurines and use thereof” (UNIVERZITA PALACKEHO V OLOMOUCI, priority 2014, dated 2018).

The GI50 is the concentration giving 50% growth inhibition. As usually defined, the IC50 is the midpoint of a concentration-inhibition curve.

What all share (type): cell-based
The test system of series [1] is Normal human dermal fibroblasts (NHDF). In words: In vitro UVA photoprotection test (neutral red). The following applies: UVA 7.5 J/cm^2, 0.9; 1.8; 3.9 a 7.8 μmol/l, 60 minutes pre-incubation. An excerpt:
(§1) Normal human dermal fibroblasts (NHDF) were used as an in vitro model. Cells were isolated from tissue specimens obtained from healthy patients undergoing plastic surgery at the Department of Plastic and Aesthetic Surgery (University Hospital Olomouc). The use of skin tissue was in accordance with the Ethics Committee of the University Hospital and Faculty of Medicine and Dentistry, Palacký University, Olomouc and all patients signed written informed consent. Fibroblasts were used between the 2nd and 4th passage. For all experiments the fibroblasts were seeded onto 96-well plates at a density of 0.8×10^5 cells/ml (0.2 ml per well) of cultivation medium (DMEM supplemented with foetal calf serum (10%, v/v), penicillin […] and streptomycin (100 U/ml)).
(§2) Test compounds included 6-(3-methoxybenzylamino)-9-β-D-arabinofuranosylpurine. […] Intensity of UVA or UVB radiation was evaluated before each irradiation by UVA- or UVB-meter. […] After 24 hours (37° C., 5% CO2) cell damage was evaluated by neutral red (NR) incorporation into viable cells. […] After 5 minutes of intensive shaking absorbance was measured at 540 nm. […] Photoprotective effect was evaluated by comparison of experimental data (absorbance) of test compounds with a positive control and a negative control (according to the following equation: […]

A short description of series [2]: Calcein AM cytotoxicity assay, MCF-7. The following applies: human, MCF-7 breast cancer cells. Put shortly: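 K562, MCF-7 and NIH3T3 cells (10^4/well) in DMEM with 10% FBS were preincubated for 24 hrs, then given six 4-fold dilutions, usually from 166.7 μM, in duplicate for 72 hrs at 37° C. Viability was read by Calcein AM fluorescence after 1 hour, with GI50 from survival relative to control.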

Series [3] has as its system skin fibroblasts BJ and keratinocytes HaCaT. Put plainly: MTT in vitro cytotoxicity test for skin cells. Conditions: Homo sapiens; MTT, 72 hour treatment, BJ and HaCaT, maximal concentration 50 microM. Put shortly: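 BJ fibroblasts and HaCaT keratinocytes (~5,000 cells/well, seeded 24 h prior) exposed 72 h to sixfold dilutions from 50 microM; DMSO vehicle as negative control. MTT added at 0.5 mg/ml final for 3 h, formazan dissolved in DMSO, absorbance read at 570 nm (640 nm reference). IC50 taken from dose-response curves.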

Series [4] has as its system Normal human dermal fibroblasts (NHDF). In words: In vitro UVB photoprotection test (neutral red). Conditions: UVB 400 mJ/cm^2, 0.9; 1.8; 3.9 a 7.8 μmol/l, 60 minutes pre-incubation.
Description: as §1, §2

Molecules are shown by their SMILES. A value given as a limit tells only on which side of the number the result lay.

Consider `COc1cccc(CNc2ncnc3c2ncn3[C@@H]2O[C@H](CO)[C@@H](O)[C@@H]2O)c1` [6-(3-methoxybenzylamino)-9-β-D-arabinofuranosylpurine], for which, in series [1], the “viability after UVA vs DMSO control (photoprotection)” value was “higher viability”. In addition, in series [2], the GI50 at 72 h is over 100 µM. In addition, the IC50 in series [3] was over 50 µM. For the same compound, in series [4], the “viability after UVB vs DMSO control (photoprotection)” value is listed as “higher viability”.
